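Assay format: 96-well plates, 48-hour exposure. Here, GI50 denotes the concentration required for 50% inhibition of growth.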 Calls of active or inactive are those of the source. No stated cut-off is given here; in the data, active = GI50 up to about 1.1 µM and inactive = higher.

Among the test systems are CAKI-1; COLO 205; EKVX; HCT-116; IGROV-1; K562; KM12; M14; M19-MEL; NCI-H522; OVCAR-4; OVCAR-5; SK-MEL-28; SK-MEL-2; SN12C; SW-620; CCRF-CEM.
What all share (experiment): NCI-60 cell line screen, 48 h

Regarding `CC(=O)C1C(=O)C(=O)N(CCN2C(=O)C(=O)C(C(C)=O)C2=O)C1=O` (configuration not stated), the GI50 in the test on CAKI-1, in the test on COLO 205, in the test on EKVX, in the test with HCT-116, in the test with IGROV-1 and with K562 was > 100 µM (inactive) each time. Besides, the GI50 with KM12, with M14, in the test with M19-MEL, with NCI-H522, with OVCAR-4 and with OVCAR-5 was > 100 µM (inactive) throughout. For the same compound, the GI50 in the test on SK-MEL-28, in the test with SK-MEL-2, with SN12C and with SW-620 was > 100 µM (inactive) throughout.
For the compound `CC1(C)OCN(c2ccc(N3CCOCC3)cc2)Cn2c1nc1ccccc12`, the GI50 in the test on CCRF-CEM was 40.7 µM (inactive); in the test on COLO 205 it was > 100 µM (inactive); in the test with EKVX, > 100 µM (inactive); in the test with HCT-116, 65.9 µM (inactive); with IGROV-1 it was > 100 µM (inactive); in the test with K562 it was > 100 µM (inactive). Further, the GI50 in the test with KM12 is > 100 µM (inactive); in the test with M14, > 100 µM (inactive); in the test on M19-MEL it was > 100 µM (inactive); in the test with NCI-H522, > 100 µM (inactive); with OVCAR-4 it was 29.6 µM (inactive); in the test on SK-MEL-28, > 100 µM (inactive). In addition, the GI50 with SK-MEL-2 was > 100 µM (inactive); in the test with SN12C, > 100 µM (inactive); in the test on SW-620 it was 34.1 µM (inactive).
Take `O=[N+]([O-])c1nccn1COCCI`: the GI50 in the test with CAKI-1, with CCRF-CEM, with COLO 205, in the test on EKVX, in the test on HCT-116 and with IGROV-1 was > 100 µM (inactive) in each case. The GI50 in the test on K562, in the test with KM12, with M14, in the test with M19-MEL, with NCI-H522 and in the test with OVCAR-4 was > 100 µM (inactive) throughout. For the same compound, the GI50 in the test with OVCAR-5, with SK-MEL-28, with SK-MEL-2, in the test on SN12C and with SW-620 was > 100 µM (inactive) throughout.
On to `COc1cccc(N2C(=O)[C@H]3[C@H]4CC(C(C)(C)C)CC[C@H]4c4c([nH]c5ccccc45)[C@H]3C2=O)c1` (some centres not stated), for which the GI50 in the test on CAKI-1 was 17.2 µM (inactive); in the test on CCRF-CEM it was 13.7 µM (inactive); with COLO 205, 15.5 µM (inactive); in the test on EKVX, 20 µM (inactive); in the test with IGROV-1, 17.1 µM (inactive); in the test on K562, 14 µM (inactive). Besides, the GI50 is 39 µM (inactive) in the test on KM12; 15.1 µM (inactive) in the test with M14; 19 µM (inactive) with M19-MEL; 19.4 µM (inactive) in the test with NCI-H522; 18.7 µM (inactive) in the test with SK-MEL-28; 20.3 µM (inactive) in the test with SK-MEL-2. Moreover, the GI50 in the test with SN12C is 13.4 µM (inactive); with SW-620, 17.4 µM (inactive).
Consider `CCc1c(OC(C)=O)c2c(NC3OC(COC(C)=O)C(OC(C)=O)C(OC(C)=O)C3OC(C)=O)nc(OC)nc2oc1=O` (configuration not stated), for which the GI50 in the test on CAKI-1, with CCRF-CEM, with COLO 205, in the test on EKVX, in the test on HCT-116 and with IGROV-1 was > 100 µM (inactive) in each case. For the same compound, the GI50 in the test on K562, with KM12, with M14, in the test with M19-MEL, in the test with OVCAR-4 and in the test on OVCAR-5 was > 100 µM (inactive) throughout. Also, the GI50 in the test with SK-MEL-2, in the test on SN12C and with SW-620 was > 100 µM (inactive) throughout.
As for `c1cnc2nc3n(c2c1)CSC3`, the GI50 in the test with CAKI-1, in the test with CCRF-CEM, with COLO 205, with EKVX, in the test on IGROV-1 and in the test on K562 was > 100 µM (inactive) each time. In addition, the GI50 in the test on KM12, with M14, in the test with M19-MEL, with NCI-H522, in the test with OVCAR-4 and in the test with OVCAR-5 was > 100 µM (inactive) each time. The GI50 with SK-MEL-28, with SK-MEL-2, in the test on SN12C and in the test on SW-620 was > 100 µM (inactive) throughout.
As to `CCOC(=O)Nc1ccc(S(=O)(=O)I)cc1.CCOC(=O)Nc1ccc(S(=O)(=O)I)cc1.CN(C=O)C1=C(N(C)C=O)C(N(C)C=O)=C(N(C)C=O)C(=O)C1=O`, the GI50 with CAKI-1, in the test on CCRF-CEM, with COLO 205, with HCT-116, with IGROV-1 and with K562 was > 100 µM (inactive) each time. The GI50 with KM12, in the test on M14, in the test with M19-MEL, in the test with OVCAR-5, in the test with SK-MEL-28 and in the test on SK-MEL-2 was > 100 µM (inactive) throughout. Moreover, the GI50 in the test with SN12C and in the test with SW-620 was > 100 µM (inactive) throughout.
Turning to `Cc1ccc(Nc2nc3c(s2)C(=O)c2ccccc2C3=O)cc1`, the GI50 with CAKI-1 is 1.63 µM (inactive); with CCRF-CEM it was 1.58 µM (inactive); in the test on COLO 205 it was 12.3 µM (inactive); in the test with EKVX, 5.14 µM (inactive); with IGROV-1, 1.64 µM (inactive); in the test with K562 it was 2.29 µM (inactive). For the same compound, the GI50 in the test on KM12 was 1.55 µM (inactive); with M14 it was 1.78 µM (inactive); with M19-MEL, 0.324 µM (active); in the test on NCI-H522 it was 1.8 µM (inactive); in the test with OVCAR-4, 1.55 µM (inactive); with OVCAR-5, 1.91 µM (inactive). The GI50 is 1.62 µM (inactive) with SK-MEL-28, 1.89 µM (inactive) in the test with SK-MEL-2, 1.92 µM (inactive) in the test with SN12C and 1.69 µM (inactive) with SW-620.
For the compound `C/C(CN1C(=O)c2ccccc2C1=O)=N\NS(=O)(=O)c1ccc(Cl)cc1`, the GI50 in the test on CAKI-1, in the test with CCRF-CEM, in the test with COLO 205, in the test on EKVX, in the test on HCT-116 and in the test with IGROV-1 was > 100 µM (inactive) in each case. Moreover, the GI50 in the test with K562, in the test with KM12, in the test on M14, in the test with M19-MEL, with NCI-H522 and with OVCAR-4 was > 100 µM (inactive) throughout. The GI50 in the test with OVCAR-5 was > 100 µM (inactive); with SK-MEL-2 it was > 100 µM (inactive); with SN12C it was 18.8 µM (inactive); with SW-620, > 100 µM (inactive).
Consider `Cc1nc2ccccc2c(=O)n1/N=C(\N=N\c1cc(Cl)ccc1Cl)c1cccc(-c2ccco2)c1`, for which the GI50 with CAKI-1 is > 100 µM (inactive); with CCRF-CEM it was > 10 µM (inactive); with COLO 205 it was > 100 µM (inactive); with EKVX, > 100 µM (inactive); in the test with HCT-116 it was 53.3 µM (inactive); in the test with IGROV-1, 61.4 µM (inactive). Besides, the GI50 in the test on K562 is > 10 µM (inactive); with KM12, 82.6 µM (inactive); in the test on M14, > 100 µM (inactive); in the test on M19-MEL, > 100 µM (inactive); in the test with OVCAR-4, > 100 µM (inactive); in the test on OVCAR-5 it was > 100 µM (inactive). Moreover, the GI50 in the test on SK-MEL-28 is > 100 µM (inactive); in the test on SK-MEL-2, 84.5 µM (inactive); in the test on SN12C, 88.3 µM (inactive); in the test on SW-620, > 100 µM (inactive).
Turning to `COc1c(C2=NC(C(C)C)CO2)ccc2ccccc12` (configuration not stated), the GI50 in the test with CAKI-1 is 61.5 µM (inactive); in the test on CCRF-CEM it was 15.3 µM (inactive); with COLO 205 it was 41.2 µM (inactive); with EKVX, 37.1 µM (inactive); in the test on IGROV-1, 71 µM (inactive); in the test on K562, 15.1 µM (inactive). In addition, the GI50 was 28.1 µM (inactive) in the test on KM12; 63.5 µM (inactive) in the test with M14; 55.5 µM (inactive) with M19-MEL; 28.2 µM (inactive) in the test with NCI-H522; 31.7 µM (inactive) in the test on OVCAR-4; 82.8 µM (inactive) in the test with OVCAR-5. Also, the GI50 was 38.6 µM (inactive) in the test with SK-MEL-28, 65.5 µM (inactive) in the test with SK-MEL-2, 64.3 µM (inactive) with SN12C and 45 µM (inactive) in the test with SW-620.
On to `Cc1ccccc1-n1c2nc(=O)n(C)c(=O)c-2nc2ccccc21`, for which the GI50 was 24.4 µM (inactive) with CAKI-1; 13.3 µM (inactive) in the test with CCRF-CEM; 3.56 µM (inactive) in the test on COLO 205; 11.8 µM (inactive) in the test with EKVX; 14.6 µM (inactive) in the test with HCT-116; 19.2 µM (inactive) with IGROV-1. The GI50 in the test with K562 is 18.2 µM (inactive); in the test on KM12, 12.2 µM (inactive); in the test with M14, 11 µM (inactive); in the test on M19-MEL, 1.85 µM (inactive); in the test with NCI-H522, 14.9 µM (inactive); in the test with OVCAR-4, 13.6 µM (inactive). Moreover, the GI50 is 20.5 µM (inactive) in the test with OVCAR-5, 15.1 µM (inactive) in the test on SK-MEL-2, 13.3 µM (inactive) in the test on SN12C and 13.4 µM (inactive) in the test on SW-620.
